The record followed here is article PMC5458257, “Identification of JL1037 as a novel, specific, reversible lysine-specific demethylase 1 inhibitor that induce apoptosis and autophagy of AML cells” (Oncotarget, 2017).

What all share (format): biochemical
In one experiment the target is T1, MAO-B (Homo sapiens, UniProt P27338).
T1 construct: gene MAOB
T1 sequence (P27338 2-520): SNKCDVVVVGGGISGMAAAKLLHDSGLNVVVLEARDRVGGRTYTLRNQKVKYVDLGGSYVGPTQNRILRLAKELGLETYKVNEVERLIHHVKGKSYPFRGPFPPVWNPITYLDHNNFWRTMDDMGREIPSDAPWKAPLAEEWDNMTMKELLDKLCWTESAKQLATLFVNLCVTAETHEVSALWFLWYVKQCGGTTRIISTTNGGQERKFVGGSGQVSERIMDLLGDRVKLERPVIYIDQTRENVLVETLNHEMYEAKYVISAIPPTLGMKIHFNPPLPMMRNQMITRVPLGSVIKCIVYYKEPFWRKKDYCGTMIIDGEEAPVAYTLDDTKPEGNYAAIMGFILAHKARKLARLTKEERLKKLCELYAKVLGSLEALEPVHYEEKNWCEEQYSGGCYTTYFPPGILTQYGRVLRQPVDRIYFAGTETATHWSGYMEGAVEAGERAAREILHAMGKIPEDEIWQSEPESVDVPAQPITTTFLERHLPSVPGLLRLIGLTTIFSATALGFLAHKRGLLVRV
The experiment is described as follows: MAO-Glo luminescent enzyme assay (Promega V1401), selectivity test. The source says:
MAO-Glo luminescent enzyme assay (Promega V1401), selectivity test on MAO-B | JL1037 enzymatic inhibitory activity against LSD1, MAO-A and MAO-B.

For experiment [1], the target named is T2, Lysine-specific demethylase 1 (LSD1) (Homo sapiens, UniProt O60341).
T2 construct: gene KDM1A
The experiment can be described thus: LSD1 Fluorimetric Drug Discovery kit (Enzo BML-AK544), HRP-coupled, H3K4me2 substrate.

The next experiment addresses T3, MAO-A (Homo sapiens, UniProt P21397).
T3 construct: gene MAOA
T3 sequence (P21397 1-527): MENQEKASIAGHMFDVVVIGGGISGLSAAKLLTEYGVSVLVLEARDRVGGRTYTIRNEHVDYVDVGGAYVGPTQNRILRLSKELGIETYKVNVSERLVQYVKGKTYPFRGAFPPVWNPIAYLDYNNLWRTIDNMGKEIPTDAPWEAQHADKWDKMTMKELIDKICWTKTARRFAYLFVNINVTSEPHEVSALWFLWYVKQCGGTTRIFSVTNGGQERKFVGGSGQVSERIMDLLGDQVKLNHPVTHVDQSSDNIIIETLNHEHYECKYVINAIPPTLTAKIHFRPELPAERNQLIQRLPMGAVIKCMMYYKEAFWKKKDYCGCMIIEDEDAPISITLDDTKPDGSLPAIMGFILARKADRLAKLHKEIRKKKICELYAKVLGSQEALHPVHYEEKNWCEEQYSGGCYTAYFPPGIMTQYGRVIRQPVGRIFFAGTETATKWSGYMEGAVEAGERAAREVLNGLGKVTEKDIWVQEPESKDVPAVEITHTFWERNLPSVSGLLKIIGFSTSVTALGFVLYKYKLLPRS
The experiment is described as follows: MAO-Glo luminescent enzyme assay (Promega V1401), selectivity test. The source says:
MAO-Glo luminescent enzyme assay (Promega V1401), selectivity test on MAO-A | JL1037 enzymatic inhibitory activity against LSD1, MAO-A and MAO-B.

What is called IC50 is the midpoint of a concentration-inhibition curve. Higher therefore signals weaker potency. Turning to JL1037, the results for the IC50 (against MAO-B; in experiment [1]; at MAO-A) were 1.77 µM, 0.11 µM and 1.92 µM, respectively.
